These results are taken from patent US6441133B1, “Thyrotropin-releasing hormone receptor 2(TRHR-2)” (AstraZeneca Canada Inc., priority 1996, dated 2002).

Like-named read-outs stand apart in the source and are kept apart here. Where a SMILES comes first, the peptide text is derived from it. Where no end group is shown, it is not given here. [ ]: non-standard residue; d: D form. pGlu = O=C1CC[C@@H](C(=O)O)N1 A value given as a limit tells only on which side of the number the result lay.

For assay [1], the target named is T1, TRHR-2 (Rattus norvegicus, UniProt A6IZR3).
T1 construct: expressed in transfected cells; host or cells: HEK293s
T1 sequence (A6IZR3 1-352): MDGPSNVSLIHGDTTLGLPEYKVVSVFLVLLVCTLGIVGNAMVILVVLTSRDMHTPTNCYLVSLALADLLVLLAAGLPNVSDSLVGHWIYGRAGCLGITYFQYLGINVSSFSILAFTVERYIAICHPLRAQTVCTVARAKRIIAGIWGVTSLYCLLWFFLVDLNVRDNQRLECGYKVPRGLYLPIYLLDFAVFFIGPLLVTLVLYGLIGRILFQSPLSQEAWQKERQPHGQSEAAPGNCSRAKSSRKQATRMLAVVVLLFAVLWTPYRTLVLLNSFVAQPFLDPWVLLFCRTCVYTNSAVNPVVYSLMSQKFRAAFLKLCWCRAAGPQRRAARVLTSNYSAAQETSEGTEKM
The assay is described as follows: 3H-TRH radioligand binding on whole HEK293s cells stably expressing TRHR-2. The procedure: (§1) The TRH binding assay was performed on whole cells. Transfected cells were washed twice with HBSS (Gibco BRL, cat# 14065) supplemented with 0.05% bovine serum albumin, detached by gentle pipetting and aliquoted in eppendorf tubes for binding assays. One twentieth of the cells collected from a confluent 75 cm^2 flask was used per assay point. The binding reaction was performed in a total volume of […] of binding buffer (HBSS+0.05% bovine serum albumin) containing the transfected cells and 10 nM of^3H-thyrotropin releasing hormone (Peninsula Laboratories Inc, cat # 7501) with or without unlabelled competitors. Non-specific binding was estimated in the presence of 1 mM of unlabelled TRH. Reactions were carried out for 60 min at room temperature and reactions were stopped by filtration through Unifilters-96 GF/B filters (Canberra Packard cat # 6005177) using the 96-well Filtermat 196 filtration system from Canberra Packard. The filters were washed 3 times with 1 ml of washing buffer (50 mM Tris(HCl), 3 mM MgCl2, pH 7.0). They were then dried at 55° C. for one hour and 50 μl of mScint-20 (Canberra Packard) was added per well. Filters were counted with the Topcount microplate counter from Canberra Packard.
HEK293s cells in a 10 cm petri dish were transfected with […] pCDNA3-TRHR2. After 14 days of selection in culture medium containing 600 μg/ml G418, resistant colonies were pooled. Then, single clones were purified by 2 rounds of limited dilution in 96 well plates. Clones of HEK293s cells expressing different levels of TRHR-2 receptor were selected using a 3H-TRH binding assay.

Assay [2] deals with T2, TRH receptor (TRHR-1) of GH4C1 cells (Rattus norvegicus, UniProt Q01717).
T2 construct: endogenous in cells; host or cells: GH4C1
T2 sequence (Q01717 1-412): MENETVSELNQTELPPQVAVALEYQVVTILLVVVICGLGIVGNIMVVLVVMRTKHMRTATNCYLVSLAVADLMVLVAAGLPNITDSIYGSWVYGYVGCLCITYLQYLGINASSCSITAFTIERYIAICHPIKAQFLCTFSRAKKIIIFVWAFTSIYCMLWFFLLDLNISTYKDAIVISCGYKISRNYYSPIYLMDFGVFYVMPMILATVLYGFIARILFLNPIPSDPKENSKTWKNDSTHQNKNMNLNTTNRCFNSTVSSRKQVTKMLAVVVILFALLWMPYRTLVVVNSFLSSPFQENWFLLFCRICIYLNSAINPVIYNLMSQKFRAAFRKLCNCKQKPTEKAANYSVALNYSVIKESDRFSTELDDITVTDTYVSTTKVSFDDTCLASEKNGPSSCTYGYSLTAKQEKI
The assay is described as follows: 3H-TRH radioligand binding on GH4C1 cells.

The target in assay [3] is T1, TRHR-2. The assay can be described thus: Intracellular calcium mobilization (Fura 2) in HEK293/TRHR-2 cells. The format is cell-based. The procedure: Intracellular calcium concentration changes where determined by fluorescence measurement of the intracellular, calcium-sensitive indicator Fura 2. Briefly, HEK293s cells were grown on glass cover slips in culture medium at 37° C., 5% CO2 and diluted 10 fold every 3 days. The cells were loaded at room temperature for 30 min using […] of is Fura 2/AM in simplified Grace's solution (SGS buffer) physiological buffer (NBS: 135 mM NaCl, 5 mM KCl, 1.8 mM CaCl2, 1.2 mM MgSO4, 10 mM HEPES, pH 7.4). Fura 2/AM is a membrane permeant, calcium-insensitive ester of Fura 2. After three washes in Fura-2 /AM-free buffer, the cells were incubated for 15 to 30 min in SGNBS at room temperature to insure full hydrolysis of the Fura 2 ester. The calcium-sensitive, hydrolyzed form of Fura 2 remains trapped intracellularly. Experiments were conducted at room temperature on single cells or small groups of 3 to 7 cells in a coverslip holder fitted to the stage of an IMT-2 inverted microscope equipped with a 40×-epifluorescence objective (UVFL40, 0.85, Olympus Optical Co, Tokyo) and coupled to a PTI ratio fluorescence system (Photon Technology International, London, Ontario, Canada). Sample illumination was provided by a 75 W xenon light source attached to a filter-based light chopper unit which provided 340 and 380 nm excitation wavelength alternating at a frequency of 5 Hz. The emitted light was passed through an adjustable rectangular aperture followed by a 505 nm interference filter (10-nm bandwidth), and its intensity was recorded by a photon counter detector. Dye leakage, as determined by loss of fluorescence over a period of 30 min, was undetectable at both excitation wavelengths.
The ratio of the fluorescence intensity at the two excitation wavelengths can be converted into an estimate of ionized intracellular calcium concentration by use of the formula: [Ca^2+]i=Kd×(Fmin/Fmax)×(R-Rmin)/(Rmax-R), where R, Rmin, and Rmax are the fluorescence ratios recorded during the experiment (R) and during calibration tests on unlysed cells using […] ionomycin in SGNBS (Rmax), followed by 10 mM EGTA addition at pH 8.2 (Rmin). Fmin and Fmax are the corresponding fluorescence intensities for the 380 nm excitation and Kd is the Fura-2 dissociation constant at room temperature (135 nM).
Small volumes (10-50 μl) of drugs (hormones, agonists, neurotransmitters, TRH, bradykinin) from prediluted stock solutions prepared in the appropriate buffer solutions were directly added to the experimental chamber.

The conditions of assay [4]: I.C.V. injection, on a molar basis (Boschi et al. 1983); cited from earlier work.
For assay [5], the target named is TRH receptor of GH4C1 cells (TRHR-1) (UniProt Q01717). The assay can be described thus: radioligand binding on whole GH4C1 cells.
The target of assay [6] is Thyrotropin-releasing hormone receptor 2 (TRHR-2), rat, expressed in HEK293s cells from pCDNA3-TRHR2 (rat). The assay is described as follows: radioligand binding on whole cells, 293S/TRH-R clonal cell line.
For assay [7] the target is unchanged. The assay is described as follows: saturation radioligand binding on whole HEK 293 cells expressing TRHR-2.
The target is the same in assay [8]. The assay can be described thus: competition with 3H-TRH tracer on whole cells, 293S/TRH-R clonal cell line.
Assay [9] deals with T3, Thyrotropin-releasing hormone receptor 2 (TRHR-2), rat, expressed in HEK293s cells from pCDNA3-TRHR2 (rat).
T3 construct: 352 amino acid open reading frame cloned from a rat brain stem-spinal cord cDNA library; also called TRH receptor 2; 293S/TRH-R clonal cell line
T3 chain: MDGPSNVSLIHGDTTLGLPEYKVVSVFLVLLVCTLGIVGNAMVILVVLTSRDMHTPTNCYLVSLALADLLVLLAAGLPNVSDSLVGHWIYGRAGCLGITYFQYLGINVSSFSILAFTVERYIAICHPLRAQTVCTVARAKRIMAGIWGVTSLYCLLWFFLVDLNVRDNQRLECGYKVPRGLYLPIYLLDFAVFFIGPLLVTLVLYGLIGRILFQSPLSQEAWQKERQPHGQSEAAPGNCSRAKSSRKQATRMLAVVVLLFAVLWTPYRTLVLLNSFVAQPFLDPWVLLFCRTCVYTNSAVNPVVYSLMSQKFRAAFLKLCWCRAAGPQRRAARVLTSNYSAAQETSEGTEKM
The description is as above. The procedure: as §1, with “cm²” for “cm^2”, “of ³H-thyrotropin” for “of^3H-thyrotropin”, “MgCl_2,” for “MgCl2,”, “µl” for “μl”
(§2) A binding reaction was performed using HEK 293 cells expressing TRHR-2. […] Various TRH-related peptides were used in competition experiments.

Assay [10] deals with T3, Thyrotropin-releasing hormone receptor …. The assay can be described thus: 3H-TRH competition on cells expressing TRHR-2 (assay not restated in the sentence). As for the experimental part: as §1, with “cm²” for “cm^2”, “of ³H-thyrotropin” for “of^3H-thyrotropin”, “MgCl_2,” for “MgCl2,”, “µl” for “μl”
as §2

Where [11] appears, read: 293S/TRH-R clonal cell line, three independent experiments, read-out: IC50.
The mark [12] stands for this setting: HEK 293 cells expressing TRHR-2, read-out: IC50 in competition with 3H-TRH as tracer.
Setting [13] is: GH4C1 cells, three independent experiments.
[14] abbreviates: nanomolar concentrations of TRH.

Regarding `NC(=O)[C@@H]1CCCN1C(=O)[C@H](Cc1cnc[nH]1)NC(=O)[C@@H]1CCC(=O)N1` [TRH, pyroglutamic acid-histidine-proline-amide], the IC50 is 8.39 ± 2.31 nM at TRHR-2 [1] (setting [11]), 8.3 nM at TRHR-2 [1] (setting [12]) and 5.33 ± 2.81 nM in assay [2] (setting [13]). In addition, the “need of extracellular calcium for the transient rise in [Ca++]i” value at TRHR-2 [3] is recorded as “did not require the presence of extracellular calcium”. In addition, the “change of intracellular calcium concentration” value at TRHR-2 [3] (setting [14]) is listed as “marked transient increase in the intracellular calcium concentration”. Further, the “time to peak of [Ca++]i” value at TRHR-2 [3] (setting [14]) is on record as “about 1 second”. The “time until baseline [Ca++]i was attained” value on TRHR-2 [3] (setting [14]) was “about 1 minute”. Besides, in [4], the “analgesia relative to morphine” value was “twice as great”.
In the case of `Cn1cnc(C[C@H](NC(=O)[C@@H]2CCC(=O)N2)C(=O)N2CCC[C@H]2C(N)=O)c1` [pGlu-3-methyl-His-Pro-amide], the IC50 is 2.2 nM on TRHR-2 [1] (setting [12]) and 0.43 ± 0.27 nM in assay [2] (setting [13]).
With “3H-thyrotropin releasing hormone (tritium-labelled TRH, Peninsula Laboratories) (peptide)”, in assay [5], the BMAX amounted to 577 fmol/mg and the Kd was 5.32 nM. In assay [6], this molecule yielded a BMAX of 535 fmol/mg and a Kd of 6.17 nM. In assay [7], this molecule had a Bmax (fmol/mg proteins) of 430 and a dissociation constant (Kd) of 2.5 nM.
In assay [8], “Thyrotropin-releasing hormone (TRH), pGlu-His-Pro-amide, unlabelled (peptide)” yielded an IC50 of 8.39 nM.
For the molecule “^3H-thyrotropin releasing hormone [^3H-TRH]”, the Kd at TRHR-2 [1] (293S/TRH-R clonal cell line, three independent experiments, read-out: Kd) was 6.17 ± 1.51 nM; on TRHR-2 [1] (HEK 293 cells expressing TRHR-2, saturation binding, read-out: estimated Kd for 3H-TRH) it was 2.5 nM; in assay [2] (setting [13]) it was 5.32 ± 1.63 nM.
For the molecule pGlu-3-methyl-His-Pro-amide (peptide), in assay [8], the IC50 is 2.2 nM.
`O=C(O)CNC(=O)[C@@H]1CCCN1C(=O)[C@H](Cc1c[nH]cn1)NC(=O)[C@@H]1CCC(=O)N1` [pGlu-His-Pro-Gly] ([pGlu]HPG-OH; C-terminus assumed): the IC50 was 641 ± 75.2 nM on TRHR-2 [1] (setting [11]), 640 nM on TRHR-2 [1] (setting [12]) and more than 10000 nM in [2] (setting [13]). For the same molecule, the Ki at TRHR-2 [1] (read-out: Ki value to the TRHR-2 receptor) came to 640 nM. For the same molecule, in assay [2], the “binding to GH4C1 cells” value is on record as “does not show any binding”.
`NC(=O)[C@@H]1CCCN1C(=O)[C@H](CCC(=O)O)NC(=O)[C@@H]1CCC(=O)N1` [pGlu-Glu-Pro-amide] ([pGlu]-Glu-Pro-NH2): the 50% inhibitory concentration (IC50) (at TRHR-2 [1] (setting [11]); on TRHR-2 [1] (setting [12]); in assay [2] (setting [13])) was more than 10000 nM throughout.

B1: pGlu-His-Pro-Gly (peptide)
peptide: [pGlu]HPG
notes: TRH-related peptide with a modified C-terminus
B1 yielded an IC50 in [9] of 641 nM. In assay [10], this molecule gave a Ki of 640 nM.
